Reference: US11649255B2, “Indazoles as hematopoietic progenitor kinase 1 (HPK1) inhibitors and methods using same” (1st Biotherapeutics, Inc., priority 2020, dated 2023)

Molecular target: recombinant human HPK1 (Homo sapiens (Human), UniProt Q92918)
Assay: HPK1 kinase assay (ADP-Glo)
Assay type: biochemical
Conditions: 25 μM ATP, MBP substrate
Summary of the method: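 Activity was read as ADP formed, detected by ADP-Glo luminescence after the reaction of 5 ng recombinant human HPK1 with MBP and ATP (stocks 0.5 μg/μl and 25 μM) for 40 min at 30 °C. Buffer was Tris pH 7.5 with MgCl2, BSA and DTT, with compound in 0.5% DMSO. IC50 came from inhibition curves.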

recombinant human HPK1, sequence (Q92918 whole entry): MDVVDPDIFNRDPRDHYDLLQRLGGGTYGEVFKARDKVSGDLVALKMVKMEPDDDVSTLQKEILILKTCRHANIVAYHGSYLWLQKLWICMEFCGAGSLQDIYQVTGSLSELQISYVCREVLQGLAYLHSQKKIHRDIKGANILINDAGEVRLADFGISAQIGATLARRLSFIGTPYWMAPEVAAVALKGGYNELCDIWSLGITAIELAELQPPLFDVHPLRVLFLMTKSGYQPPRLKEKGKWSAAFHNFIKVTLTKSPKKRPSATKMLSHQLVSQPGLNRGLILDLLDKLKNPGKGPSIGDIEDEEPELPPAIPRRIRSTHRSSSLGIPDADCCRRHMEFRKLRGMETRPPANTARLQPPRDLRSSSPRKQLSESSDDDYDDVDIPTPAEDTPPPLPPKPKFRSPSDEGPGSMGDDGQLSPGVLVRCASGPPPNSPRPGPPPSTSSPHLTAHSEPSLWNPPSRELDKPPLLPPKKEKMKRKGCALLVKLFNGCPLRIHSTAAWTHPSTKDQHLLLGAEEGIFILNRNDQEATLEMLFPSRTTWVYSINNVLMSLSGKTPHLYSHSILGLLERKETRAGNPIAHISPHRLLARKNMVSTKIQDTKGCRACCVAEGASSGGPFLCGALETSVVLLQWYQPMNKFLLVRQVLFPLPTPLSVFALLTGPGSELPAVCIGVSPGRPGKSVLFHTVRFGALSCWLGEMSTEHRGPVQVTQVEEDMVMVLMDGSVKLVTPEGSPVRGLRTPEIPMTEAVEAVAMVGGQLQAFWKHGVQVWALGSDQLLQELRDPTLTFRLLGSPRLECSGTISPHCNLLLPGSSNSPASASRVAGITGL

SMILES	IC50
CN(CCc1ccncc1)c1c(F)c(Cl)c(-c2ccn3nc(NC(=O)[C@@H]4C[C@@H]4F)cc3c2)c2cn[nH]c12 [Example 616, (1S,2S)-N-(5-(5-chloro-6-fluoro-7-(methyl(2-(pyridin-4-yl)ethyl)amino)-1H-indazol-4-yl)pyrazolo[1,5-a]pyridin-2-yl)-2-fluorocyclopropane-1-carboxamide]	< 100 nM
CCNC(=O)C(C)c1c(F)c(Cl)c(-c2ccc3nc(NC(=O)[C@@H]4C[C@@H]4F)cn3c2)c2cn[nH]c12 (stereo partly drawn) [Example 445, (1S,2S)-N-(6-(5-chloro-7-(1-(ethylamino)-1-oxopropan-2-yl)-6-fluoro-1H-indazol-4-yl)imidazo[1,2-a]pyridin-2-yl)-2-fluorocyclopropane-1-carboxamide]	< 100 nM
C[C@H]1[C@H](C(=O)Nc2cc3cc(-c4c(Cl)c(F)c(N(C)C)c5[nH]ncc45)ccn3n2)[C@H]1c1cnn(C)c1 [Example 646, (1S,2R,3S)-N-(5-(5-chloro-7-(dimethylamino)-6-fluoro-1H-indazol-4-yl)pyrazolo[1,5-a]pyridin-2-yl)-2-methyl-3-(1-methyl-1H-pyrazol-4-yl)cyclopropane-1-carboxamide]	< 100 nM
CCc1c(F)c(C(F)(F)F)c2[nH]ncc2c1-c1ccc2nc(NC(=O)[C@@H]3C[C@@H]3F)sc2n1 [Example 210, (1S,2S)-N-(5-(5-ethyl-6-fluoro-7-(trifluoromethyl)-1H-indazol-4-yl)thiazolo[5,4-b]pyridin-2-yl)-2-fluorocyclopropane-1-carboxamide]	< 100 nM
CCOc1c(F)cc2[nH]ncc2c1-c1ccn2nc(NC(=O)[C@@H]3C[C@@H]3F)cc2c1 [Example 578, (1S,2S)-N-(5-(5-ethoxy-6-fluoro-1H-indazol-4-yl)pyrazolo[1,5-a]pyridin-2-yl)-2-fluorocyclopropane-1-carboxamide]	< 100 nM
O=C(Nc1cn2cc(-c3c(Cl)c(F)c(Cn4cnnn4)c4[nH]ncc34)ccc2n1)[C@@H]1C[C@@H]1F [Example 392, (1S,2S)-N-(6-(7-((1-tetrazol-1-yl)methyl)-5-chloro-6-fluoro-1H-indazol-4-yl)imidazo[1,2-a]pyridin-2-yl)-2-fluorocyclopropane-1-carboxamide]	< 100 nM
O=C(Nc1cn2cc(-c3c(Cl)c(F)c(N4CCCC4=O)c4[nH]ncc34)ccc2n1)[C@@H]1C[C@@H]1F [Example 336, (1S,2S)-N-(6-(5-chloro-6-fluoro-7-(2-oxopyrrolidin-1-yl)-1H-indazol-4-yl)imidazo[1,2-a]pyridin-2-yl)-2-fluorocyclopropane-1-carboxamide]	< 100 nM
O=C(Nc1cn2cc(-c3c(Cl)c(F)c(CF)c4[nH]ncc34)ccc2n1)[C@@H]1C[C@@H]1F [Example 363, (1S,2S)-N-(6-(5-chloro-6-fluoro-7-(fluoromethyl)-1H-indazol-4-yl)imidazo[1,2-a]pyridin-2-yl)-2-fluorocyclopropane-1-carboxamide]	< 100 nM
CC(N)c1c(F)c(Cl)c(-c2ccc3nc(NC(=O)[C@@H]4C[C@@H]4F)cn3c2)c2cn[nH]c12 (stereo partly drawn) [Example 399, (1S,2S)-N-(6-(7-(1-aminoethyl)-5-chloro-6-fluoro-1H-indazol-4-yl)imidazo[1,2-a]pyridin-2-yl)-2-fluorocyclopropane-1-carboxamide]	< 100 nM
CSc1c(F)c(Cl)c(-c2ccn3nc(NC(=O)O[C@@H]4COC[C@H]4C)cc3c2)c2cn[nH]c12 [Example 645, (3S,4R)-4-methyltetrahydrofuran-3-yl (5-(5-chloro-6-fluoro-7-(methylthio)-1H-indazol-4-yl)pyrazolo[1,5-a]pyridin-2-yl)carbamate]	< 100 nM
O=C(Nc1cc2cc(-c3c(Cl)c(F)c(N4CCC(F)C4)c4[nH]ncc34)ccn2n1)[C@@H]1C[C@@H]1F (stereo partly drawn) [Example 642, (1S,2S)-N-(5-(5-chloro-6-fluoro-7-(3-fluoropyrrolidin-1-yl)-1H-indazol-4-yl)pyrazolo[1,5-a]pyridin-2-yl)-2-fluorocyclopropane-1-carboxamide]	< 100 nM
CC1CN(c2c(F)c(Cl)c(-c3ccn4nc(NC(=O)[C@@H]5C[C@@H]5F)cc4c3)c3cn[nH]c23)C1 [Example 630, (1S,2S)-N-(5-(5-chloro-6-fluoro-7-(3-methylazetidin-1-yl)-1H-indazol-4-yl)pyrazolo[1,5-a]pyridin-2-yl)-2-fluorocyclopropane-1-carboxamide]	< 100 nM
CCOc1c(F)c(Cl)c(-c2ccn3nc(NC(=O)[C@@H]4C[C@@H]4F)cc3c2)c2cn[nH]c12 [Example 493, (1S,2S)-N-(5-(5-chloro-7-ethoxy-6-fluoro-1H-indazol-4-yl)pyrazolo[1,5-a]pyridin-2-yl)-2-fluorocyclopropane-1-carboxamide]	< 100 nM
O=C(Nc1cn2cc(-c3c(Cl)c(F)c(N4CCCC4)c4[nH]ncc34)ccc2n1)[C@@H]1C[C@@H]1F [Example 282, (1S,2S)-N-(6-(5-chloro-6-fluoro-7-(pyrrolidin-1-yl)-1H-indazol-4-yl)imidazo[1,2-a]pyridin-2-yl)-2-fluorocyclopropane-1-carboxamide]	< 100 nM
CC(C#N)Nc1c(F)c(Cl)c(-c2ccn3nc(NC(=O)[C@@H]4C[C@@H]4F)cc3c2)c2cn[nH]c12 (stereo partly drawn) [Example 641, (1S,2S)-N-(5-(5-chloro-7-((1-cyanoethyl)amino)-6-fluoro-1H-indazol-4-yl)pyrazolo[1,5-a]pyridin-2-yl)-2-fluorocyclopropane-1-carboxamide]	< 100 nM
CCOCc1c(F)c(Cl)c(-c2ccc3nc(NC(=O)[C@@H]4C[C@@H]4F)cn3c2)c2cn[nH]c12 [Example 391, (1S,2S)-N-(6-(5-chloro-7-(ethoxymethyl)-6-fluoro-1H-indazol-4-yl)imidazo[1,2-a]pyridin-2-yl)-2-fluorocyclopropane-1-carboxamide]	< 100 nM
O=C(Nc1nc2ccc(-c3cc(F)c(OC(F)(F)F)c4[nH]ncc34)nc2s1)[C@@H]1C[C@@H]1F [Example 215, (1S,2S)-2-fluoro-N-(5-(6-fluoro-7-(trifluoromethoxy)-1H-indazol-4-yl)thiazolo[5,4-b]pyridin-2-yl)cyclopropane-1-carboxamide]	> 1000 nM

More lines, now with the values ahead:

IC50	SMILES
> 1000 nM	O=C(O)c1c(F)c(Cl)c(-c2ccc3nc(NC(=O)[C@@H]4C[C@@H]4F)sc3c2)c2cn[nH]c12 [Example 121, 5-chloro-6-fluoro-4-(2-((1S,2S)-2-fluorocyclopropane-1-carboxamido)benzo[d]thiazol-6-yl)-1H-indazole-7-carboxylic acid]
< 100 nM	CCc1c(F)cc2[nH]ncc2c1-c1ccc2nc(NC(=O)C3CC3)cn2c1 [Example 248, N-(6-(5-ethyl-6-fluoro-1H-indazol-4-yl)imidazo[1,2-a]pyridin-2-yl)cyclopropanecarboxamide]
101 to 500 nM	Cc1ccc2[nH]ncc2c1-c1ccc2nc(NC(=O)[C@@H]3C[C@@H]3F)sc2c1 [Example 2, (1S,2S)-2-fluoro-N-(6-(5-methyl-1H-indazol-4-yl)benzo[d]thiazol-2-yl)cyclopropane-1-carboxamide]
< 100 nM	O=C(Nc1cn2cc(-c3c(Cl)c(F)c(NC4CC4)c4[nH]ncc34)ccc2n1)[C@@H]1C[C@@H]1F [Example 367, (1S,2S)-N-(6-(5-chloro-7-(cyclopropylamino)-6-fluoro-1H-indazol-4-yl)imidazo[1,2-a]pyridin-2-yl)-2-fluorocyclopropane-1-carboxamide]
> 1000 nM	O=C(NCc1ccsc1)c1ccc2[nH]ncc2c1-c1ccc2nc(NC(=O)C3CC3)sc2c1 [Example 23, 4-(2-(cyclopropanecarboxamido)benzo[d]thiazol-6-yl)-N-(thiophen-3-ylmethyl)-1H-indazole-5-carboxamide]
< 100 nM	CN(CCN)c1c(F)c(Cl)c(-c2ccc3nc(NC(=O)[C@@H]4C[C@@H]4F)sc3c2)c2cn[nH]c12 [Example 82, (1S,2S)-N-(6-(7-((2-aminoethyl)(methyl)amino)-5-chloro-6-fluoro-1H-indazol-4-yl)benzo[d]thiazol-2-yl)-2-fluorocyclopropane-1-carboxamide]
> 1000 nM	O=C(Nc1nc2ccc(-c3cc(F)c(OC(F)(F)F)c4[nH]ncc34)cc2s1)[C@@H]1C[C@@H]1F [Example 140, (1S,2S)-2-fluoro-N-(6-(6-fluoro-7-(trifluoromethoxy)-1H-indazol-4-yl)benzo[d]thiazol-2-yl)cyclopropane-1-carboxamide]
< 100 nM	CSc1c(F)cc2[nH]ncc2c1-c1ccn2nc(NC(=O)[C@H]3C[C@H]3F)cc2c1 [Example 573, (1R,2R)-2-fluoro-N-(5-(6-fluoro-5-(methylthio)-1H-indazol-4-yl)pyrazolo[1,5-a]pyridin-2-yl)cyclopropane-1-carboxamide]
< 100 nM	Cc1c(F)c(I)c2[nH]ncc2c1-c1ccc2nc(NC(=O)[C@@H]3C[C@@H]3F)sc2c1 [Example 67, (1S,2S)-2-fluoro-N-(6-(6-fluoro-7-iodo-5-methyl-1H-indazol-4-yl)benzo[d]thiazol-2-yl)cyclopropane-1-carboxamide]
101 to 500 nM	CN(C)C(=O)c1c(F)cc(-c2ccc3nc(NC(=O)[C@@H]4C[C@@H]4F)sc3c2)c2cn[nH]c12 [Example 144, 6-fluoro-4-(2-((1S,2S)-2-fluorocyclopropane-1-carboxamido)benzo[d]thiazol-6-yl)-N,N-dimethyl-1H-indazole-7-carboxamide]
> 1000 nM	O=C(Nc1nc2ccc(-c3cc(Cl)cc4[nH]ncc34)cc2s1)C1CC1 [Example 20, N-(6-(6-chloro-1H-indazol-4-yl)benzo[d]thiazol-2-yl)cyclopropanecarboxamide]
< 100 nM	Cc1c(F)c(Cl)c(-c2ccc3nc(NC(=O)[C@@H]4C[C@@H]4F)sc3c2)c2cn[nH]c12 [Example 57, (1S,2S)-N-(6-(5-chloro-6-fluoro-7-methyl-1H-indazol-4-yl)benzo[d]thiazol-2-yl)-2-fluorocyclopropane-1-carboxamide]
> 1000 nM	Cc1c(F)c(C(=O)O)c2[nH]ncc2c1-c1ccc2nc(NC(=O)[C@@H]3C[C@@H]3F)sc2c1 [Example 124, 6-fluoro-4-(2-((1S,2S)-2-fluorocyclopropane-1-carboxamido)benzo[d]thiazol-6-yl)-5-methyl-1H-indazole-7-carboxylic acid]
